According to patent US20090281049A1, “New use of ginsenoside compound-k in manufacturing medicaments” (priority 2006, published 2009):

Experiments:
[1] = system: carrageenan-induced acute inflammation in rats; experiment: Carrageenan-induced paw edema in rats; format: in vivo, Rat, SD strain
Procedure: Animals were firstly divided into large dose group: 10 mg/kg, iv, medium dose group: 5 mg/kg, iv, small dose group: 2.5 mg/kg, iv, an Indomethacin group: 1 mg/kg, po and a blank control group: physiological saline 10 mg/kg, iv. The animals were administered by the foregoing method for 3 days. The volume of the right hind paw of the rats was measured using hydroplethismometer before inflammation induced. 1 hour after the last administration, 0.1 ml 1% carrageenan was injected into the plantar surface of the right hind paw in order to induce inflammation. The volume of the right hind paw of the rats was measured by hydroplethismometer every other hour thereafter respectively. Swell rate and inhibition rate were calculated by the same method as above. Differences among groups were compared with t test.

[2] = system: Collagen Type II (CII) induced arthritis in rats; experiment: Preventive effect on Collagen Type II (CII) induced arthritis in rats; format: in vivo, Rat, SD strain
Procedure: Inflammation-induced agent: Collagen Type II was dissolved in 0.1 mol/L acetic acid to make final concentration be 2 mg/ml collagen solution, and held in 4° C. overnight. The Collagen Type II solution was added to cold Freund's Adjuvant Incomplete by drops (Collagen Type II: Freund's Adjuvant Incomplete=1:1) on the next day, emulsified completely (Type II Collagen solution: Freund's Adjuvant Incomplete=1:1), and the final concentration of Collagen Type II was 1 mg/ml. The Collagen Type II emulsion was reserved in a refrigerator at 4° C.
Immune method: Each rat was immunized by being injected subcutaneously at 5 points on the back with 0.1 ml emulsion in each point, total of […] (contained 0.5 mg Collagen Type II), and immunized again in the same way 7 days later. An emulsion of 0.1 mol/L acetic acid and Freund's Adjuvant Incomplete was injected in control group. The swell values of the arthrosis in right hind ankle and foot were measured respectively by using a hydroplethismometer before injection and 20 days after immunization.
The Collagen Type II solution, which had been dissolved in acetic acid and held overnight, was adjusted to concentration 2 mg/ml, then added by drops slowly to Freund's Adjuvant Incomplete in proportion of 1:1. After the mixture was emulsified completely, each rat was injected subcutaneously at 5 points on the back with 0.1 ml emulsion in each point (total 0.5 ml in each rat, containing 0.5 mg Collagen Type II) for the first immunization. 7 days later, the second immunization was repeated in the same way.
The animals were divided into large dose group: Ginsenoside Compound-K, 10 mg/kg, iv, medium dose group: Ginsenoside Compound-K, 5 mg/kg, iv, small dose group: Ginsenoside Compound-K, 2.5 mg/kg, iv, Tripterygium Wilfordii Hook group: 1.5 mg/kg, po-, Enbrel group: 9 mg/kg, sc and blank control group: physiological saline 10 mg/kg, iv. The animals of administration groups were administered at the first immunization and stopped administering 8 days after the first immunization. The swell value of arthrosis in ankle and foot was measured by using hydroplethismometer before immunization and on day 20, 22, 24, 27 and 29 after the first immunization respectively. Swell rate and inhibition rate were calculated by the same method as the foregoing. Differences among groups were compared with t test. When the treatment finished, the arthroses in ankle and foot were taken for pathological examination.

## CC(C)=CCC[C@](C)(O[C@@H]1O[C@H](CO)[C@@H](O)[C@H](O)[C@H]1O)[C@H]1CC[C@]2(C)[C@@H]1[C@H](O)C[C@@H]1[C@@]3(C)CC[C@H](O)C(C)(C)[C@@H]3CC[C@]12C [Ginsenoside Compound-K, ginsenoside Compound-K]
[1]; 2.5 mg/kg iv, 0 h
  swell value: 1.33 ± 0.08 mL
[1]; 2.5 mg/kg iv, 1 h
  inhibition rate: <13.97> %
  swell rate: (20.22 ± 9.99) %
  swell value: 1.59 ± 0.08 mL
[1]; 2.5 mg/kg iv, 2 h
  inhibition rate: <8.80> %
  swell rate: (29.40 ± 12.71) %
  swell value: 1.71 ± 0.13 mL
[1]; 2.5 mg/kg iv, 3 h
  inhibition rate: <16.54> %
  swell rate: (34.80 ± 14.01) %
  swell value: 1.79 ± 0.14 mL
[1]; 2.5 mg/kg iv, 4 h
  inhibition rate: <24.08> %
  swell rate: (29.49 ± 13.86) %
  swell value: 1.71 ± 0.12 mL
[1]; 2.5 mg/kg iv, 5 h
  inhibition rate: <15.78> %
  swell rate: (31.22 ± 14.12) %
  swell value: 1.74 ± 0.12 mL
[1]; 5 mg/kg iv, 0 h
  swell value: 1.39 ± 0.12 mL
[1]; 5 mg/kg iv, 1 h
  inhibition rate: <49.51> %
  swell rate: (11.87 ± 6.23) %
  swell value: 1.55 ± 0.11 mL
[1]; 5 mg/kg iv, 2 h
  inhibition rate: <42.44> %
  swell rate: (18.56 ± 9.77) %
  swell value: 1.64 ± 0.09 mL
[1]; 5 mg/kg iv, 3 h
  inhibition rate: <32.62> %
  swell rate: (28.09 ± 11.34) %
  swell value: 1.77 ± 0.12 mL
[1]; 5 mg/kg iv, 4 h
  inhibition rate: <48.22> %
  swell rate: (20.11 ± 11.20) %
  swell value: 1.66 ± 0.13 mL
[1]; 5 mg/kg iv, 5 h
  inhibition rate: <53.80> %
  swell rate: (17.13 ± 10.13) %
  swell value: 1.62 ± 0.11 mL
[1]; 10 mg/kg iv, 0 h
  swell value: 1.42 ± 0.10 mL
[1]; 10 mg/kg iv, 1 h
  inhibition rate: <72.87> %
  swell rate: (6.38 ± 7.44) %
  swell value: 1.51 ± 0.10 mL
[1]; 10 mg/kg iv, 2 h
  inhibition rate: <56.96> %
  swell rate: (13.87 ± 8.55) %
  swell value: 1.62 ± 0.11 mL
[1]; 10 mg/kg iv, 3 h
  inhibition rate: <61.49> %
  swell rate: (16.06 ± 12.41) %
  swell value: 1.65 ± 0.16 mL
[1]; 10 mg/kg iv, 4 h
  inhibition rate: <70.38> %
  swell rate: (11.51 ± 9.76) %
  swell value: 1.58 ± 0.14 mL
[1]; 10 mg/kg iv, 5 h
  inhibition rate: <78.23> %
  swell rate: (8.07 ± 10.88) %
  swell value: 1.53 ± 0.12 mL
[1]; rats, 10, 5, 2.5 mg/kg iv
  overall effect on carrageenan-induced acute inflammation: able to inhibit carrageenan-induced acute inflammation in rats obviously
[2]; 2.5 mg/kg iv, 0 day
  swell value: 1.09 ± 0.04 mL
[2]; 2.5 mg/kg iv, 20 day
  inhibition rate: <23.26> %
  swell rate: (40.29 ± 18.03) %
  swell value: 1.39 ± 0.24 mL
[2]; 2.5 mg/kg iv, 22 day
  inhibition rate: <24.39> %
  swell rate: (38.98 ± 18.96) %
  swell value: 1.38 ± 0.24 mL
[2]; 2.5 mg/kg iv, 24 day
  inhibition rate: <25.92> %
  swell rate: (38.92 ± 15.07) %
  swell value: 1.37 ± 0.24 mL
[2]; 2.5 mg/kg iv, 27 day
  inhibition rate: <27.08> %
  swell rate: (36.93 ± 13.02) %
  swell value: 1.35 ± 0.22 mL
[2]; 2.5 mg/kg iv, 29 day
  inhibition rate: <27.60> %
  swell rate: (31.75 ± 13.70) %
  swell value: 1.33 ± 0.17 mL
[2]; 5 mg/kg iv, 0 day
  swell value: 1.11 ± 0.06 mL
[2]; 5 mg/kg iv, 20 day
  inhibition rate: <29.01> %
  swell rate: (37.27 ± 15.30) %
  swell value: 1.43 ± 0.23 mL
[2]; 5 mg/kg iv, 22 day
  inhibition rate: <32.11> %
  swell rate: (35.00 ± 15.12) %
  swell value: 1.41 ± 0.22 mL
[2]; 5 mg/kg iv, 24 day
  inhibition rate: <31.56> %
  swell rate: (35.95 ± 11.21) %
  swell value: 1.45 ± 0.17 mL
[2]; 5 mg/kg iv, 27 day
  inhibition rate: <31.57> %
  swell rate: (34.66 ± 13.01) %
  swell value: 1.41 ± 0.23 mL
[2]; 5 mg/kg iv, 29 day
  inhibition rate: <29.04> %
  swell rate: (31.12 ± 13.81) %
  swell value: 1.39 ± 0.18 mL
[2]; 10 mg/kg iv, 0 day
  swell value: 1.08 ± 0.07 mL
[2]; 10 mg/kg iv, 20 day
  inhibition rate: <32.97> %
  swell rate: (35.19 ± 19.75) %
  swell value: 1.37 ± 0.26 mL
[2]; 10 mg/kg iv, 22 day
  inhibition rate: <47.51> %
  swell rate: (27.06 ± 19.03) %
  swell value: 1.30 ± 0.23 mL
[2]; 10 mg/kg iv, 24 day
  inhibition rate: <48.29> %
  swell rate: (27.16 ± 16.39) %
  swell value: 1.31 ± 0.21 mL
[2]; 10 mg/kg iv, 27 day
  inhibition rate: <44.61> %
  swell rate: (28.05 ± 14.52) %
  swell value: 1.32 ± 0.19 mL
[2]; 10 mg/kg iv, 29 day
  inhibition rate: <34.19> %
  swell rate: (28.86 ± 19.06) %
  swell value: 1.32 ± 0.23 mL
[2]; rats, 10, 5, 2.5 mg/kg iv
  overall preventive effect on Collagen Type II induced arthritis: able to prevent Collagen Type II induced arthritis
